For one compound, Kd, Activity and MIC results are on record in ChEMBL document CHEMBL5537201, “Discovery of Unique Bis-Substituted Aromatic Amide Derivatives as Novel Highly Potent Antibiotics for Combating Methicillin-Resistant Staphylococcus aureus (MRSA)” (J Med Chem, 2024).

≈ marks a conversion by molar mass, not a printed value. Calls of active or inactive are those of the source.

Data set [1] is described as follows: Binding affinity to Staphylococcus aureus ATCC6538 Phosphatidylethanolamine assessed as dissociation constant by ITC analysis. On the technique in general: ITC needs no label: the signal is the heat of the interaction.
For data set [2], the system named is Staphylococcus aureus. In words: Antibiofilm activity against Staphylococcus aureus clinical isolate MRS153 assessed as reduction in biofilm formation at 1 to 32 ug/ml incubated for 20 to 22 hrs by crystal violet staining based analysis. In kind it is functional, organism-based. The settings on record: dose 1-32 µg/ml, time 20-22 hrs.
For data set [3], the system named is Staphylococcus aureus. In words: Antimicrobial activity against methicillin resistant Staphylococcus aureus clinical isolate MRS273 assessed as reduction in bacterial growth incubated for 24 hrs by two-fold broth dilution method. The format is functional. For orientation: Dilution methods test growth across graded concentrations, often in twofold steps.
Data set [4] relates to Staphylococcus aureus. Description: Antimicrobial activity against methicillin resistant Staphylococcus aureus clinical isolate MRS153 assessed as proton dynamic dissipation at pH 5 to 11. In kind it is functional, organism-based.
Data set [5] has as its system Staphylococcus aureus. In words: In vivo antibacterial activity against methicillin-resistant Staphylococcus aureus clinical isolate MRS153 infected in C57BL/6N mouse model assessed as reduction in bacterial load in liver at 3.125 to 12.5 mg/kg, iv measured after 24 hrs. The format is functional, organism-based. The settings on record: dose 3.125-12.5 mg/kg.
Data set [6] has as its system Cell membrane. In words: Induction of inner membrane permeabilization in Staphylococcus aureus ATCC6538 assessed as disruption of cell membrane by measuring rightward shift measured after by PI staining based flow cytometry analysis. In kind it is cell membranes.
The next data set has as its system Peptidoglycan. In words: Binding affinity to methicillin resistant Staphylococcus aureus clinical isolate MRS153 peptidoglycan assessed as change in MIC at upto 256 ug/ml measured after 22 hrs. The following applies: dose <= 256.0 µg/ml.
For data set [7], the system named is Staphylococcus aureus. In words: Antimicrobial activity against methicillin resistant Staphylococcus aureus clinical isolate MRS1 assessed as reduction in bacterial growth incubated for 24 hrs by two-fold broth dilution method. In kind it is functional.
Data set [8] has as its system Staphylococcus aureus. In words: Upregulation of ABC transport family genes in Staphylococcus aureus ATCC6538 at 5 ug/ml incubated for 2 hrs by RNA sequencing analysis. The format is functional. The settings on record: dose 5.0 µg/ml.
The test system of data set [9] is Staphylococcus aureus. Description: Antimicrobial activity against methicillin resistant Staphylococcus aureus clinical isolate MRS153 assessed as increase in ROS levels measured upto 90 mins by H2DCFDA probe based flow cytometry. The format is functional, organism-based. In general terms: In flow cytometry, cells or beads pass a laser one at a time.
The test system of data set [10] is Cell membrane. In words: Induction of cytoplasmic membrane depolarization in Staphylococcus aureus ATCC6538 assessed as increase in fluorescence intensity measured upto 120 mins by DiSC3(5) dye based fluorescence method. In kind it is cell membranes.
The subject of data set [11] is Staphylococcus aureus. Description: Antimicrobial activity against Staphylococcus aureus ATCC6538 assessed as membrane fluidity measured after 35 mins. The format is functional, organism-based.
The nature of data set [12]: Toxicity in BALB/c mouse assessed as as effect on lung at 25 to 50 mg/kg, iv by H and E staining based analysis. The following applies: in vivo, dose 25-50 mg/kg. The format is organism-based.
Data set [13] relates to Staphylococcus aureus. In words: Bactericidal activity against vancomycin-resistant Staphylococcus aureus ATCC6538 measured upto 120 mins by colony counting method. The format is functional, organism-based.

Regarding `O=C(CCC(F)(F)F)N(Cc1cc2ccccc2s1)c1cc(-c2noc(C(F)(F)F)n2)ccc1O`, the Kd in [1] worked out at 183 µM. For the same compound, the outcome in the data set with Staphylococcus aureus [2], with Staphylococcus aureus [4], in the data set on Staphylococcus aureus [5], in the data set with Cell membrane [6], with Staphylococcus aureus [8] and in the data set on Staphylococcus aureus [9] was Active. The result with Cell membrane [10] and in the data set with Staphylococcus aureus [11] was Active. Moreover, the MIC in the data set on Staphylococcus aureus [3] and in the data set on Staphylococcus aureus [7] was 1 µg/mL (≈ 1.94 µM) in each case. The outcome with Peptidoglycan was inactive. Besides, the Activity entry in data set [12] is “Non-Toxic”; with Staphylococcus aureus [13], “Dose-Dependent Effect”.

By Kd is commonly meant a measure of binding affinity in units of concentration. Usually MIC stands for the smallest concentration in the dilution series that meets the test's criterion for growth inhibition.
